Experimental data as given in PubChem BioAssay (NCI).
Where “and” joins values, the source holds several entries; their conditions need not be identical. Equal values may be shown once.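 Compound exposure: 48 hours, 5 concentrations, 96-well plates. At the GI50, growth is halved. TGI is the concentration that stops growth completely.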

What was measured:
Experiment in all cases: DTP human tumour cell line panel, 48 h
SF-539 CNS = test system: SF-539 CNS
PC-3 prostate = test system: PC-3 prostate
KM12 colon = test system: KM12 colon
BT-549 breast = test system: BT-549 breast
SK-MEL-5 melanoma = test system: SK-MEL-5 melanoma
OVCAR-3 ovarian = test system: OVCAR-3 ovarian
EKVX NSCLC = test system: EKVX NSCLC
OVCAR-4 ovarian = test system: OVCAR-4 ovarian
HOP-92 NSCLC = test system: HOP-92 NSCLC
DU-145 prostate = test system: DU-145 prostate

| SMILES | GI50 (SF-539 CNS) | TGI (SF-539 CNS) | GI50 (PC-3 prostate) | TGI (PC-3 prostate) | GI50 (KM12 colon) | TGI (KM12 colon) | GI50 (BT-549 breast) | TGI (BT-549 breast) | GI50 (SK-MEL-5 melanoma) | TGI (SK-MEL-5 melanoma) | GI50 (OVCAR-3 ovarian) | TGI (OVCAR-3 ovarian) | GI50 (EKVX NSCLC) | TGI (EKVX NSCLC) | GI50 (OVCAR-4 ovarian) | TGI (OVCAR-4 ovarian) | GI50 (HOP-92 NSCLC) | TGI (HOP-92 NSCLC) | GI50 (DU-145 prostate) | TGI (DU-145 prostate) |
| --- | --- | --- | --- | --- | --- | --- | --- | --- | --- | --- | --- | --- | --- | --- | --- | --- | --- | --- | --- | --- |
| O=C1NC(=O)C(c2ccccc2Cl)=C1Nc1cccc(O)c1 | 8.93 µM | > 25 µM | 11.3 µM | > 25 µM | 2.51 µM | > 25 µM | 9.62 µM | > 25 µM | 1.67 µM | > 25 µM | 4.95 µM | > 25 µM | > 22.5 µM | > 25 µM | 7.02 µM | > 25 µM | 8.53 µM | > 25 µM | 9.29 µM | > 25 µM |
| O=[N+]([O-])/C=C\c1ccc2c(c1)OCO2 | 3.08 µM | 9.35 µM | 2.62 µM | 7.34 µM | 2.04 µM | 4.43 µM | 2.15 µM | 4.8 µM | 3.68 µM | 13.9 µM | 4.1 µM | 15.2 µM | 14.4 µM | 34.9 µM | 11.8 µM | 24.2 µM | 12.5 µM | 30.9 µM | 3.07 µM | 10.2 µM |
| CC1(C)C(=O)/C(=C\c2ccco2)C[C@]2(C)[C@H]3CC=C4[C@@H]5C[C@](C)(C(=O)O)CC[C@]5(C)CC[C@@]4(C)[C@]3(C)CC[C@@H]12 | 13.2 µM | 27.3 µM | 3.93 µM | 23.1 µM | 5.88 µM | 19.5 µM | 9.46 µM | 25.4 µM | 10.5 µM | 22.5 µM | 10.9 µM | 26.1 µM | 4.63 µM | 17.3 µM | 12.8 µM | 27 µM | 3.83 µM | 17 µM | 9.87 µM | 24.2 µM |
| O=C(O)C(Cc1ccc(O)c([N+](=O)[O-])c1)N1C(=O)c2ccccc2C1=O (configuration not stated) | – | > 100 µM | – | > 100 µM | – | > 100 µM | – | > 100 µM | – | > 100 µM | – | > 100 µM | – | > 100 µM | – | > 100 µM | – | > 100 µM | – | > 100 µM |
| O=C(N/N=C/c1ccc(F)cc1)c1[nH]c2ccc(I)cc2c1-c1ccccc1 | 0.338 µM | 1.34 µM | 0.541 µM | > 86.4 µM | 0.385 µM | 2.11 µM | 2.15 µM | 22.9 µM | 0.417 µM | 2.52 µM | 0.229 µM | 0.531 µM | 0.47 µM | > 26.9 µM | 0.702 µM | > 87.4 µM | 12.5 µM | > 92.3 µM | 0.479 µM | 2.46 µM |
| Cc1ccc2c(c1)sc(-c1ccc(N(C)C)cc1)[n+]2C | 2.56 µM | 14.1 µM | 0.677 µM | 9.23 µM | 0.397 µM | 14.6 µM | 0.464 µM | 8.08 µM | 0.39 µM | 1.8 µM | 0.685 µM | 15 µM | 0.379 µM | > 100 µM | 1.58 µM | > 100 µM | 0.719 µM | 5.36 µM | 1.95 µM | 32 µM |
| Cn1cnc([N+](=O)[O-])c1Sc1ncnc2nc[nH]c12 | 4.81 µM and 3.26 µM | > 100 µM | 25.6 µM and 45.9 µM | > 100 µM | 4.25 µM and 10.8 µM | > 100 µM | 12.2 µM and 7.26 µM | > 100 µM | 12.1 µM and 14.4 µM | > 100 µM | 2.92 µM and 3.23 µM | 75.9 µM and > 80.2 µM | 28.3 µM and > 100 µM | > 100 µM | 3.38 µM and 10.2 µM | > 100 µM | – | > 100 µM | 3.03 µM and 4.36 µM | > 100 µM |
| CCCCS(=N)(=O)CC[C@H](N)C(=O)O (some centres not stated) | > 10000 µM | 5000 µM and > 10000 µM | > 10000 µM | > 10000 µM | > 10000 µM | > 10000 µM | > 10000 µM | > 10000 µM | > 10000 µM | > 10000 µM | > 10000 µM | > 10000 µM | 615 µM | 1720 µM and 3890 µM | 13.4 µM | – | 945 µM | – | > 10000 µM | > 10000 µM |
